Test results from PubChem BioAssay AID1963982 (Molecular Pharmacology Branch, DTP, NCI, 2024).
Each block holds one molecule with its values, some of them ahead of it.

System: 313798-341-R-J2-PDC spheroids, viability
Test: Anticancer human tumor 313798-341-R-J2-PDC patient-derived cervical squamous cell carcinoma cell line growth inhibition [PI3K]
Details: spheroids with HUVEC and MSC; for IC50: curve of first compound; for viability, T/C: stronger effect = lower value
Procedure, shortened: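 Tumor cells grown as multi-cell spheroids with HUVEC endothelial cells and MSC fibroblast-like stroma were treated with targeted agents combined with inavolisib, alpelisib, duvelisib or copanlisib. Doses fell in half-log steps from near clinical Cmax, else from 10 microM. Viability was measured.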

[1] = second compound 0.00316 µM, first compound 0.0316 µM
[2] = second compound 0.00316 µM, first compound 0.1 µM
[3] = second compound 0.00316 µM, first compound 0.316 µM
[4] = second compound 0.00316 µM, first compound 1 µM
[5] = second compound 0.00316 µM, first compound 3.16 µM
[6] = second compound 0.00316 µM, first compound 10 µM
[7] = second compound 0.01 µM, first compound 0.0316 µM
[8] = second compound 0.01 µM, first compound 0.1 µM
[9] = second compound 0.01 µM, first compound 0.316 µM
[10] = second compound 0.01 µM, first compound 1 µM
[11] = second compound 0.01 µM, first compound 3.16 µM
[12] = second compound 0.01 µM, first compound 10 µM
[13] = second compound 0.0316 µM, first compound 0.0316 µM
[14] = second compound 0.0316 µM, first compound 0.1 µM
[15] = second compound 0.0316 µM, first compound 0.316 µM
[16] = second compound 0.0316 µM, first compound 1 µM
[17] = second compound 0.0316 µM, first compound 3.16 µM
[18] = second compound 0.0316 µM, first compound 10 µM
[19] = second compound 0.1 µM, first compound 0.0316 µM
[20] = second compound 0.1 µM, first compound 0.1 µM
[21] = second compound 0.1 µM, first compound 0.316 µM
[22] = second compound 0.1 µM, first compound 1 µM
[23] = second compound 0.1 µM, first compound 3.16 µM
[24] = second compound 0.1 µM, first compound 10 µM
[25] = second compound 0.316 µM, first compound 0.0316 µM
[26] = second compound 0.316 µM, first compound 0.1 µM
[27] = second compound 0.316 µM, first compound 0.316 µM
[28] = second compound 0.316 µM, first compound 1 µM
[29] = second compound 0.316 µM, first compound 3.16 µM
[30] = second compound 0.316 µM, first compound 10 µM
[31] = second compound 1 µM, first compound 0.0316 µM
[32] = second compound 1 µM, first compound 0.1 µM
[33] = second compound 1 µM, first compound 0.316 µM
[34] = second compound 1 µM, first compound 1 µM
[35] = second compound 1 µM, first compound 3.16 µM
[36] = second compound 1 µM, first compound 10 µM
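Note: spheroids exposed to compounds for seven days.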
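Throughout, for viability, T/C: 100% = DMSO vehicle control viability.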

IC50 (second compound 0.00316 µM): > 10 µM
IC50 (second compound 0.01 µM): > 10 µM
IC50 (second compound 0.0316 µM): > 10 µM
IC50 (second compound 0.1 µM): > 10 µM
IC50 (second compound 0.316 µM): > 10 µM
IC50 (second compound 1 µM): > 10 µM
SMILES: C#Cc1c(F)ccc2cc(O)cc(-c3ncc4c(N5CC6CCC(C5)N6)nc(OCC56CCCN5CC(F)C6)nc4c3F)c12 (stereo unspecified) + CC(Nc1ccc2c(c1)OCCn1cc(N3C(=O)OCC3C(F)F)nc1-2)C(N)=O
viability, T/C [1]: 91.8%
viability, T/C [2]: 96.8%
viability, T/C [3]: 97.4%
viability, T/C [4]: 95.5%
viability, T/C [5]: 99.3%
viability, T/C [6]: 99.3%
viability, T/C [7]: 97.7%
viability, T/C [8]: 99.9%
viability, T/C [9]: 102%
viability, T/C [10]: 110%
viability, T/C [11]: 116%
viability, T/C [12]: 98.9%
viability, T/C [13]: 100%
viability, T/C [14]: 113%
viability, T/C [15]: 109%
viability, T/C [16]: 99.1%
viability, T/C [17]: 109%
viability, T/C [18]: 104%
viability, T/C [19]: 118%
viability, T/C [20]: 94.5%
viability, T/C [21]: 108%
viability, T/C [22]: 104%
viability, T/C [23]: 102%
viability, T/C [24]: 97%
viability, T/C [25]: 91%
viability, T/C [26]: 81.6%
viability, T/C [27]: 74.2%
viability, T/C [28]: 78.8%
viability, T/C [29]: 83%
viability, T/C [30]: 76.9%
viability, T/C [31]: 60.6%
viability, T/C [32]: 62.2%
viability, T/C [33]: 61.2%
viability, T/C [34]: 58.9%
viability, T/C [35]: 58.6%
viability, T/C [36]: 45.6%

IC50 (second compound 0.00316 µM): > 10 µM
IC50 (second compound 0.01 µM): > 10 µM
IC50 (second compound 0.0316 µM): > 10 µM
IC50 (second compound 0.1 µM): > 10 µM
IC50 (second compound 0.316 µM): > 10 µM
IC50 (second compound 1 µM): > 10 µM
SMILES: C=CC(=O)N1CCN(c2nc(=O)n(-c3c(C)ccnc3C(C)C)c3nc(-c4c(O)cccc4F)c(F)cc23)C(C)C1 (stereo unspecified) + CC(Nc1ccc2c(c1)OCCn1cc(N3C(=O)OCC3C(F)F)nc1-2)C(N)=O
viability, T/C [1]: 111%
viability, T/C [2]: 92.3%
viability, T/C [3]: 97.2%
viability, T/C [4]: 96%
viability, T/C [5]: 105%
viability, T/C [6]: 98.7%
viability, T/C [7]: 98.3%
viability, T/C [8]: 102%
viability, T/C [9]: 97.8%
viability, T/C [10]: 95.2%
viability, T/C [11]: 102%
viability, T/C [12]: 97.7%
viability, T/C [13]: 110%
viability, T/C [14]: 97.1%
viability, T/C [15]: 104%
viability, T/C [16]: 96.9%
viability, T/C [17]: 106%
viability, T/C [18]: 102%
viability, T/C [19]: 104%
viability, T/C [20]: 95.3%
viability, T/C [21]: 102%
viability, T/C [22]: 101%
viability, T/C [23]: 118%
viability, T/C [24]: 100%
viability, T/C [25]: 83.7%
viability, T/C [26]: 85.8%
viability, T/C [27]: 86.8%
viability, T/C [28]: 96.7%
viability, T/C [29]: 87.5%
viability, T/C [30]: 70%
viability, T/C [31]: 55.2%
viability, T/C [32]: 59.5%
viability, T/C [33]: 54.8%
viability, T/C [34]: 56.4%
viability, T/C [35]: 66.7%
viability, T/C [36]: 56.2%

IC50 (second compound 0.00316 µM): > 10 µM
IC50 (second compound 0.01 µM): > 10 µM
IC50 (second compound 0.0316 µM): > 10 µM
IC50 (second compound 0.1 µM): > 10 µM
IC50 (second compound 0.316 µM): > 10 µM
IC50 (second compound 1 µM): 4.5 µM
SMILES: CC(Cn1ccc(-c2ccc(C#N)c(Cl)c2)n1)NC(=O)c1cc(C(C)O)[nH]n1 (stereo unspecified) + CC(Nc1ccc2c(c1)OCCn1cc(N3C(=O)OCC3C(F)F)nc1-2)C(N)=O
viability, T/C [1]: 102%
viability, T/C [2]: 107%
viability, T/C [3]: 98.3%
viability, T/C [4]: 101%
viability, T/C [5]: 105%
viability, T/C [6]: 99.8%
viability, T/C [7]: 106%
viability, T/C [8]: 103%
viability, T/C [9]: 109%
viability, T/C [10]: 103%
viability, T/C [11]: 100%
viability, T/C [12]: 89.1%
viability, T/C [13]: 122%
viability, T/C [14]: 111%
viability, T/C [15]: 106%
viability, T/C [16]: 113%
viability, T/C [17]: 96.7%
viability, T/C [18]: 97.2%
viability, T/C [19]: 109%
viability, T/C [20]: 107%
viability, T/C [21]: 102%
viability, T/C [22]: 117%
viability, T/C [23]: 99.1%
viability, T/C [24]: 82.3%
viability, T/C [25]: 86.7%
viability, T/C [26]: 86.3%
viability, T/C [27]: 78.8%
viability, T/C [28]: 84.5%
viability, T/C [29]: 79.9%
viability, T/C [30]: 60.8%
viability, T/C [31]: 64.8%
viability, T/C [32]: 55.5%
viability, T/C [33]: 63.7%
viability, T/C [34]: 58.6%
viability, T/C [35]: 54.2%
viability, T/C [36]: 40.5%
